Data as given in publication PMC5838524 (Molecular Informatics, 2018).

Columns and labels:
Assay in all cases: Gal4 hybrid reporter gene assay
Type in all cases: cell-based
Settings in all cases: agonist mode; printed as 'inactive' (no significant transactivation at 30 μM)
[1] = biological target: T1, PPARα (Homo sapiens, UniProt Q07869)
T1 sequence (Q07869 167-468 limits assumed): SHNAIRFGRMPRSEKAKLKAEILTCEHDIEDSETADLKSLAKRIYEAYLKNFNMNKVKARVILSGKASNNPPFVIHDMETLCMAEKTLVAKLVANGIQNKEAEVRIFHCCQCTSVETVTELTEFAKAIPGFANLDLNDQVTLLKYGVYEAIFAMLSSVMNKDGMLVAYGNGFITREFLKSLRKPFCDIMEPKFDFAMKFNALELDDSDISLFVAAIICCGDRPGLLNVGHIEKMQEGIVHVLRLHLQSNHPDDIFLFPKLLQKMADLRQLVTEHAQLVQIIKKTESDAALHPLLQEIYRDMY

[2] = biological target: T2, PPARδ (Homo sapiens, UniProt Q03181)
T2 sequence (Q03181 139-441 limits assumed): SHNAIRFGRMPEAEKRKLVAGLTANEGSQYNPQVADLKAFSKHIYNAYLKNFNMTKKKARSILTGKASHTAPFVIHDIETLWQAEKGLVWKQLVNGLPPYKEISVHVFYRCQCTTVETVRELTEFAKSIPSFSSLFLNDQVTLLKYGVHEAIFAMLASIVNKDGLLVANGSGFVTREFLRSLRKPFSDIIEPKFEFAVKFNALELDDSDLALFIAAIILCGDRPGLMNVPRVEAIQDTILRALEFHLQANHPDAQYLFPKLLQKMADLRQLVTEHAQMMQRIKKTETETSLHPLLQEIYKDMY

[3] = biological target: T3, RXRα (Homo sapiens, UniProt P19793)
T3 sequence (P19793 225-462 limits assumed): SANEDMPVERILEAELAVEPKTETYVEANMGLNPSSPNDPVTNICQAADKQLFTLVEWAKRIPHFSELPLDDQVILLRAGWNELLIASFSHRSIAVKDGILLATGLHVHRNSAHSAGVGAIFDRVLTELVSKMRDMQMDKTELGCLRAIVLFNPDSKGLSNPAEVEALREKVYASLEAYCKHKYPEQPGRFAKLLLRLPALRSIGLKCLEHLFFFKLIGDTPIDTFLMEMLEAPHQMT

[4] = biological target: T4, RXRβ (Homo sapiens, UniProt P28702)
T4 sequence (P28702 296-533 limits assumed): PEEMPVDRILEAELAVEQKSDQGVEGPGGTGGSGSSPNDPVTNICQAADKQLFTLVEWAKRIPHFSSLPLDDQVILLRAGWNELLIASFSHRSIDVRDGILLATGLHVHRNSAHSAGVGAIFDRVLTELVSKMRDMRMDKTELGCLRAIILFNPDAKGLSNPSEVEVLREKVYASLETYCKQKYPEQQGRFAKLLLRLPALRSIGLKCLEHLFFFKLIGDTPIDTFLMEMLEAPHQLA

[5] = biological target: T5, RXRγ (Homo sapiens, UniProt P48443)
T5 sequence (P48443 231-459 limits assumed): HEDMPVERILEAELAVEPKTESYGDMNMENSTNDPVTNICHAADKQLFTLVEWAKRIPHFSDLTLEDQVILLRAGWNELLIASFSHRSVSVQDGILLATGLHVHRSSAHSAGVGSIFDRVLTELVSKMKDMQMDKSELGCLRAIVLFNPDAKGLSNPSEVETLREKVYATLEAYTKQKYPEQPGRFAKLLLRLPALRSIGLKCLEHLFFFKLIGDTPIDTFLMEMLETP

EC50 [1]	EC50 [2]	EC50 [3]	EC50 [4]	EC50 [5]	SMILES
> 30 µM	> 30 µM	–	–	–	O=C(O)c1cccc(NC(=O)c2ccc(-c3ccccc3)s2)c1 [compound 1, design 1]
> 30 µM	> 30 µM	–	–	–	O=C(O)c1ccc(-c2cc(F)ccc2OCc2ccc(F)cc2)c(C(F)(F)F)c1 [compound 2, design 2]
–	> 30 µM	> 30 µM	> 30 µM	> 30 µM	O=C(O)c1ccc(-c2cccc(O)c2)cc1OC1CCCC1 [compound 3, design 3]
